{"source": "patent US20250282799A1", "about": "“SUBSTITUTED PYRIDO[4,3-d]PYRIMIDINES AS KRAS MODULATORS” (Alterome Therapeutics, Inc., priority 2023, published 2025)", "data": [{"tested_on": "KRAS G12V dependent lung adenocarcinoma cell line, NCI-H441", "experiment": "Cellular pERK (Thr202/Tyr204) FRET/HTRF assay", "format": "cell-based", "conditions": "Homo sapiens, NCI-H441, cellular pERK (Thr202/Tyr204) HTRF, NCI-H441 cells", "how_it_was_run": "(§1)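 Read-out is a wash-free FRET sandwich immunoassay for endogenous ERK1/2 phosphorylated on Thr202/Tyr204. Signal was measured in NCI-H441 lung adenocarcinoma cells after 1 hr compound exposure at 37 °C. IC50 values come from fitted concentration-response curves.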", "units": {"IC50": "nM"}, "values": [{"compound": "[2H]C([2H])(Oc1nc(N2CCC=C[C@H]3[C@H](F)[C@H]32)c2cnc(-c3cc(N)cc4cc(F)c(F)c(C#C)c34)c(F)c2n1)[C@@]12CCCN1C[C@H](F)C2", "note": "[Example 94, 5-ethynyl-6,7-difluoro-4-(8-fluoro-4-((1S,7R,8S)-8-fluoro-2-azabicyclo[5.1.0]oct-5-en-2-yl)-2-(((2R,7aS)-2-fluorotetrahydro-1H-pyrrolizin-7a(5H)-yl)methoxy-d2)pyrido[4,3-d]pyrimidin-7-yl)naphthalen-2-amine]", "IC50": "< 50"}, {"compound": "C#Cc1c(F)ccc2cc(N)cc(-c3ncc4c(N5CCOC[C@H]6[C@H](F)[C@H]65)nc(OC[C@]56C[C@]7(C[C@H]7F)CN5CCC65CC5)nc4c3F)c12", "note": "(single isomer, unassigned) [Example 231]", "IC50": "< 50"}, {"compound": "[2H]C([2H])(Oc1nc(N2CCOC[C@H]3[C@H](F)[C@H]32)c2cnc(-c3cc(O)c(F)c(C)c3C(F)(F)F)c(F)c2n1)[C@@]12CCCN1C[C@H](F)C2", "note": "[Example 330, 2-fluoro-5-(8-fluoro-4-((1S,7S,8S)-8-fluoro-5-oxa-2-azabicyclo[5.1.0]octan-2-yl)-2-(((2R,7aS)-2-fluorotetrahydro-1H-pyrrolizin-7a(5H)-yl)methoxy-d2)pyrido[4,3-d]pyrimidin-7-yl)-3-methyl-4-(trifluoromethyl)phenol]", "IC50": "50 to 500"}, {"compound": "[2H]C([2H])(Oc1nc(N2CC[C@H](C#N)C[C@@H]3[C@H](F)[C@@H]32)c2cnc(-c3cc(N)cc4ccc(F)c(C#C)c34)c(F)c2n1)[C@@]12CCCN1C[C@H](F)C2", "note": "(stereo in doubt) [Example 309, (1R,SR,7S,8S)-2-(7-(3-amino-8-ethynyl-7-fluoronaphthalen-1-yl)-8-fluoro-2-(((2R,7aS)-2-fluorotetrahydro-1H-pyrrolizin-7a(5H)-yl)methoxy-d2)pyrido[4,3-d]pyrimidin-4-yl)-8-fluoro-2-azabicyclo[5.1.0]octane-5-carbonitrile]", "IC50": "50 to 500"}, {"compound": "C#Cc1c(F)ccc2cc(N)cc(-c3ncc4c(N5CCOC[C@H]6[C@H](F)[C@H]65)nc(OC[C@@]56CCCN5C[C@@]5(C[C@H]5F)C6)nc4c3F)c12", "note": "(single isomer, unassigned) [Example 253]", "IC50": "< 50"}, {"compound": "C#Cc1c(Cl)ccc2cc(N)cc(-c3ncc4c(N5CCOC[C@@H]6[C@@H](Cl)[C@@H]65)nc(OC[C@@H]5CCCN5C)nc4c3F)c12", "note": "[Example 326, 6-chloro-4-(4-((1R,7R,8R)-8-chloro-5-oxa-2-azabicyclo[5.1.0]octan-2-yl)-8-fluoro-2-(((S)-1-methylpyrrolidin-2-yl)methoxy)pyrido[4,3-d]pyrimidin-7-yl)-5-ethynylnaphthalen-2-amine]", "IC50": "50 to 500"}, {"compound": "C#Cc1c(F)ccc2cc(N)cc(-c3ncc4c(N5CCOC[C@H]6[C@H](F)[C@H]65)nc(OC[C@@]56CCCN5C[C@]5(C[C@H]5F)C6)nc4c3F)c12", "note": "(single isomer, unassigned) [Example 254]", "IC50": "< 50"}, {"compound": "[2H]C([2H])(F)Oc1c(F)ccc2cc(N)cc(-c3ncc4c(N5CCCC[C@H]6[C@H](F)[C@H]65)nc(OC[C@]56C/C(=C\\F)CN5CCC65CC5)nc4c3F)c12", "note": "[Example 383, 6-fluoro-4-(8-fluoro-4-((1S,7R,8S)-8-fluoro-2-azabicyclo[5.1.0]octan-2-yl)-2-(((R,E)-6′-(fluoromethylene)tetrahydrospiro[cyclopropane-1,1′-pyrrolizin]-7a′(5′H)-yl)methoxy)pyrido[4,3-d]pyrimidin-7-yl)-5-(fluoromethoxy-d2)naphthalen-2-amine]", "IC50": "< 50"}, {"compound": "[2H]C([2H])([2H])Oc1c(F)c(F)c(F)c2cc(N)cc(-c3ncc4c(N5CCOC[C@H]6[C@H](F)[C@H]65)nc(OC[C@@]56CCCN5C/C(=C\\F)C6)nc4c3F)c12", "note": "[Example 133, 6,7,8-trifluoro-4-(8-fluoro-4-((1S,7S,8S)-8-fluoro-5-oxa-2-azabicyclo[5.1.0]octan-2-yl)-2-(((S,Z)-2-(fluoromethylene)tetrahydro-1H-pyrrolizin-7a(5H)-yl)methoxy)pyrido[4,3-d]pyrimidin-7-yl)-5-(methoxy-d3)naphthalen-2-amine]", "IC50": "< 50"}, {"compound": "Nc1cc(Cl)c(C(F)(F)F)c(-c2ncc3c(N4CCCC[C@@H]5[C@@H](F)[C@@H]54)nc(OC[C@@]45CCCN4C/C(=C\\F)C5)nc3c2F)c1", "note": "[Example 374, 3-chloro-5-(8-fluoro-4-((1R,7S,8R)-8-fluoro-2-azabicyclo[5.1.0]octan-2-yl)-2-(((S,Z)-2-(fluoromethylene)tetrahydro-1H-pyrrolizin-7a(5H)-yl)methoxy)pyrido[4,3-d]pyrimidin-7-yl)-4-(trifluoromethyl)aniline]", "IC50": "500 to 10000"}, {"compound": "C#Cc1c(F)c(F)cc2cccc(-c3ncc4c(N5CCOC[C@H]6[C@H](F)[C@H]65)nc(OC[C@@]56CCCN5CC(=C(F)F)C6)nc4c3F)c12", "note": "[Example 105, (1S,7S,8S)-2-(2-(((S)-2-(difluoromethylene)tetrahydro-1H-pyrrolizin-7a(5H)-yl)methoxy)-7-(8-ethynyl-6,7-difluoronaphthalen-1-yl)-8-fluoropyrido[4,3-d]pyrimidin-4-yl)-8-fluoro-5-oxa-2-azabicyclo[5.1.0]octane]", "IC50": "< 50"}, {"compound": "C#Cc1c(F)ccc2cc(N)cc(-c3ncc4c(N5CCOC[C@H]6[C@H](F)[C@H]65)nc(OC[C@@]56C=C(C)CN5CCC65CC5)nc4c3F)c12", "note": "[Example 244, 5-ethynyl-6-fluoro-4-(8-fluoro-4-((1S,7S,8S)-8-fluoro-5-oxa-2-azabicyclo[5.1.0]octan-2-yl)-2-(((S)-6′-methyl-2′,3′-dihydrospiro[cyclopropane-1,1′-pyrrolizin]-7a′(5′H)-yl)methoxy)pyrido[4,3-d]pyrimidin-7-yl)naphthalen-2-amine]", "IC50": "< 50"}, {"compound": "[2H]C([2H])(Oc1nc(N2CCOC[C@@H]3[C@H]2[C@@]3([2H])F)c2cnc(-c3cccc4cc(F)c(F)c(C#C)c34)c(F)c2n1)[C@@]12CCCN1C[C@H](F)C2", "note": "[Example 122, (1S,7S,8S)-2-(7-(8-ethynyl-6,7-difluoronaphthalen-1-yl)-8-fluoro-2-(((2R,7aS)-2-fluorotetrahydro-1H-pyrrolizin-7a(5H)-yl)methoxy-d2)pyrido[4,3-d]pyrimidin-4-yl)-8-fluoro-5-oxa-2-azabicyclo[5.1.0]octane-8-d]", "IC50": "< 50"}]}, {"tested_on": "KRAS G12V dependent lung adenocarcinoma cell line, NCI-H441", "experiment": "Cellular pERK (Thr202/Tyr204) FRET/HTRF assay", "format": "cell-based", "conditions": "Homo sapiens, NCI-H441, cellular pERK HTRF, NCI-H441 (KRAS G12V) cells", "how_it_was_run": "as §1", "units": {"IC50": "nM"}, "values": [{"compound": "[2H]C([2H])(Oc1nc(N2CCOC[C@H]3[C@H](F)[C@H]32)c2cnc(-c3cc(N)cc4ccc(F)c(C#C)c34)c(C)c2n1)[C@]12CC(=C)CN1CCC21CC1", "note": "[Example 442, 5-Ethynyl-6-fluoro-4-(4-((1S,7S,8S)-8-fluoro-5-oxa-2-azabicyclo[5.1.0]octan-2-yl)-8-methyl-2-(((R)-6′-methylenetetrahydrospiro[cyclopropane-1,1′-pyrrolizin]-7a′(5′H)-yl)methoxy-d2)pyrido[4,3-d]pyrimidin-7-yl)naphthalen-2-amine]", "IC50": "< 50"}]}, {"tested_on": "KRAS G12V dependent lung adenocarcinoma cell line, NCI-H441", "experiment": "Cellular pERK (Thr202/Tyr204) FRET/HTRF assay", "format": "cell-based", "conditions": "Homo sapiens, NCI-H441, pERK HTRF, NCI-H441 cells (KRAS G12V)", "how_it_was_run": "as §1", "units": {"IC50": "nM"}, "values": [{"compound": "[2H]C([2H])(Oc1nc(N2CCCO[C@H]3C[C@H]32)c2c(OC)nc(-c3cc(N)cc4cc(F)c(F)c(C#C)c34)c(F)c2n1)[C@@]12CCCN1C[C@H](F)C2", "note": "[Example 34, 4-(4-((1S,7R)-2-Oxa-6-azabicyclo[5.1.0]octan-6-yl)-8-fluoro-2-(((2R,7aS)-2-fluorotetrahydro-1H-pyrrolizin-7a(5H)-yl)methoxy-d2)-5-methoxypyrido[4,3-d]pyrimidin-7-yl)-5-ethynyl-6,7-difluoronaphthalen-2-amine]", "IC50": "< 50"}, {"compound": "[2H]C([2H])(Oc1nc(N2CCO[C@H]3C[C@H]32)c2cnc(-c3cc(N)cc4cc(F)c(F)c(C#C)c34)c(F)c2n1)[C@@]12CCCN1C[C@H](F)C2", "note": "[Example 32, 4-(4-((1S,6R)-2-Oxa-5-azabicyclo[4.1.0]heptan-5-yl)-8-fluoro-2-(((2R,7aS)-2-fluorotetrahydro-1H-pyrrolizin-7a(5H)-yl)methoxy-d2)pyrido[4,3-d]pyrimidin-7-yl)-5-ethynyl-6,7-difluoronaphthalen-2-amine]", "IC50": "50 to 500"}, {"compound": "[2H]C([2H])(Oc1nc(N2CCOC[C@H]3C[C@H]32)c2cnc(-c3ccc(F)c4sc(N)c(C#N)c34)c(F)c2n1)[C@@]12CCCN1C[C@H](F)C2", "note": "[Example 48, 4-(4-((1R,7S)-5-Oxa-2-azabicyclo[5.1.0]octan-2-yl)-8-fluoro-2-(((2R,7aS)-2-fluorotetrahydro-1H-pyrrolizin-7a(5H)-yl)methoxy-d2)pyrido[4,3-d]pyrimidin-7-yl)-2-amino-7-fluorobenzo[b]thiophene-3-carbonitrile]", "IC50": "50 to 500"}]}, {"tested_on": "KRAS G12V dependent lung adenocarcinoma cell line, NCI-H441", "experiment": "Cellular pERK (Thr202/Tyr204) FRET/HTRF assay", "format": "cell-based", "conditions": "cellular pERK (Thr202/Tyr204) HTRF, NCI-H441 cells", "how_it_was_run": "as §1", "units": {"IC50": "nM"}, "values": [{"compound": "[2H]C([2H])(Oc1nc(N2CCOC[C@H]3[C@H](F)[C@H]32)c2cc(C#N)c(-c3cc(N)cc4ccc(F)c(C#C)c34)c(F)c2n1)[C@@]12CCCN1C[C@H](F)C2", "note": "(atropisomer, axis not shown; (aS)) [Example 360, (R)-7-(3-amino-8-ethynyl-7-fluoronaphthalen-1-yl)-8-fluoro-4-((1S,7S,8S)-8-fluoro-5-oxa-2-azabicyclo[5.1.0]octan-2-yl)-2-(((2R,7aS)-2-fluorotetrahydro-1H-pyrrolizin-7a(5H)-yl)methoxy-d2)quinazoline-6-carbonitrile]", "IC50": "500 to 10000"}, {"compound": "[2H]C([2H])(Oc1nc(N2CCOC[C@H]3[C@H](F)[C@H]32)c2cc(C#N)c(-c3cc(N)cc4ccc(F)c(C#C)c34)c(F)c2n1)[C@@]12CCCN1C[C@H](F)C2", "note": "(atropisomer, axis not shown; (aS)) [Example 358, (S)-7-(3-amino-8-ethynyl-7-fluoronaphthalen-1-yl)-8-fluoro-4-((1S,7S,8S)-8-fluoro-5-oxa-2-azabicyclo[5.1.0]octan-2-yl)-2-(((2R,7aS)-2-fluorotetrahydro-1H-pyrrolizin-7a(5H)-yl)methoxy-d2)quinazoline-6-carbonitrile]", "IC50": "< 50"}]}]}
